Consider 14 molecules from PubChem BioAssay AID210 (DTP/NCI, 2004).

“And” between values parts separate entries of the source, which are not always exact repeats. Equal values may be shown once. Inconclusive results and toxic doses are left out.

For the test, the system named is CD2F1 mice, ip Colon 26 adenocarcinoma, median survival T/C. In words: NCI In Vivo Anticancer Drug Screen. Data for tumor model Colon 26 Adenocarcinoma (intraperitoneal) in CD2F1 (CDF1) mice. The settings on record: endpoint: median survival time, higher = longer survival. As for the experimental part:
The antitumor activity of compounds was measured in mice bearing transplantable tumors. Survival or tumor size were measured and the results are expressed as the measurement made in the treated group (T) divided by the measurement made in the vehicle treated control group (C). The tumor model used in this assay is Colon 26 Adenocarcinoma (intraperitoneal) in CD2F1 (CDF1) mice

Setting [1] is: dose: 12.5 mg/kg/injection, schedule: Q04DX003 (ip), vehicle: saline with Tween-80.
The mark [2] stands for this setting: dose: 25.0 mg/kg/injection, schedule: Q04DX003 (ip), vehicle: saline with Tween-80.
Where [3] appears, read: dose: 50.0 mg/kg/injection, schedule: Q04DX003 (ip), vehicle: saline with Tween-80.

With `CN1C(=O)CC2(CCN(CCCC(=O)c3ccc(F)cc3)CC2)C1=O`, the T/C reads like this: (dose: 3.12 mg/kg/injection, schedule: Q04DX003 (ip), vehicle: saline with Tween-80) 96 % of control; (dose: 6.25 mg/kg/injection, schedule: Q04DX003 (ip), vehicle: saline with Tween-80) 98 % of control; under setting [1], 100 % of control; under setting [2], 100 % of control; under setting [3], 102 % of control.
As for `CN(C)CCNc1cccc2c1C(=O)c1cccc(NCCN(C)C)c1C2=O`, the T/C (dose: 1.88 mg/kg/injection, schedule: Q01DX009 (ip), vehicle: saline) was 103 % of control; the T/C (dose: 3.75 mg/kg/injection, schedule: Q01DX009 (ip), vehicle: saline) is 108 % of control; the T/C (dose: 7.5 mg/kg/injection, schedule: Q01DX009 (ip), vehicle: saline) was 99 % of control; the T/C (dose: 15.0 mg/kg/injection, schedule: Q01DX009 (ip), vehicle: saline) is 113 % of control.
As to `COc1cccc2c1C(=O)c1c(O)c3c(c(O)c1C2=O)C[C@@](O)(/C(CO)=N/NC(=O)c1ccc(Cl)c(Cl)c1)C[C@@H]3OC1CC(N)C(O)C(C)O1` (some centres not stated), the T/C runs as follows: (dose: 16.0 mg/kg/injection, schedule: Q07DX002 (iv), vehicle: saline) 92 % of control; (dose: 24.0 mg/kg/injection, schedule: Q07DX002 (iv), vehicle: saline) 109 % of control; (dose: 36.0 mg/kg/injection, schedule: Q07DX002 (iv), vehicle: saline) 103 % of control.
In the case of `O=C1NC(O)CCN1C1OC(CO)C(O)C1O` (configuration not stated), the T/C runs as follows: (dose: 50.0 mg/kg/injection, schedule: Q04DX003 (ip), vehicle: saline) 101 % of control; (dose: 100.0 mg/kg/injection, schedule: Q04DX003 (ip), vehicle: saline) 101 % of control; (dose: 200.0 mg/kg/injection, schedule: Q04DX003 (ip), vehicle: saline) 98 % of control; (dose: 400.0 mg/kg/injection, schedule: Q04DX003 (ip), vehicle: saline) 100 % of control; (dose: 800.0 mg/kg/injection, schedule: Q04DX003 (ip), vehicle: saline) 108 % of control.
Regarding `CCNCCNc1ccc(NCCNCC)c2c1C(=O)c1ccccc1C2=O`, the T/C reads like this: (dose: 2.0 mg/kg/injection, schedule: Q01DX009 (ip), vehicle: acid diluted with saline) 179 % of control; (dose: 4.0 mg/kg/injection, schedule: Q01DX009 (ip), vehicle: acid diluted with saline) 189 % of control; (dose: 8.0 mg/kg/injection, schedule: Q01DX009 (ip), vehicle: acid diluted with saline) 163 % of control and 166 % of control; (dose: 16.0 mg/kg/injection, schedule: Q01DX009 (ip), vehicle: acid diluted with saline) 169 % of control and 177 % of control.
In the case of `CCOC(=O)c1ccc(NC(=O)Nc2nccs2)cc1`, the T/C by setting is: (dose: 12.5 mg/kg/injection, schedule: Q04DX002 (ip), vehicle: saline with Tween-80) 97 % of control; (dose: 25.0 mg/kg/injection, schedule: Q04DX002 (ip), vehicle: saline with Tween-80) 105 % of control; (dose: 50.0 mg/kg/injection, schedule: Q04DX002 (ip), vehicle: saline with Tween-80) 95 % of control; (dose: 100.0 mg/kg/injection, schedule: Q04DX002 (ip), vehicle: saline with Tween-80) 106 % of control; (dose: 200.0 mg/kg/injection, schedule: Q04DX002 (ip), vehicle: saline with Tween-80) 102 % of control; (dose: 400.0 mg/kg/injection, schedule: Q04DX002 (ip), vehicle: saline with Tween-80) 110 % of control.
Take `Nc1ncnc2nc[nH]c12`: the T/C (dose: 64.0 mg/kg/injection, schedule: Q04DX002 (ip), vehicle: Klucel (hydroxypropylcellulose) (HPC)) is 97 % of control; the T/C (dose: 128.0 mg/kg/injection, schedule: Q04DX002 (ip), vehicle: Klucel (hydroxypropylcellulose) (HPC)) was 91 % of control; the T/C (dose: 256.0 mg/kg/injection, schedule: Q04DX002 (ip), vehicle: Klucel (hydroxypropylcellulose) (HPC)) was 95 % of control; the T/C (dose: 512.0 mg/kg/injection, schedule: Q04DX002 (ip), vehicle: Klucel (hydroxypropylcellulose) (HPC)) was 94 % of control.
On to `O=NN(CCCl)C(=O)NC1CCCCC1`, for which the T/C (dose: 10.0 mg/kg/injection, schedule: Q04DX003 (ip), vehicle: carboxymethylcellulose (CMC)) was 121 % of control; the T/C (dose: 40.0 mg/kg/injection, schedule: Q04DX003 (ip), vehicle: carboxymethylcellulose (CMC)) was 196 % of control; the T/C (dose: 80.0 mg/kg/injection, schedule: Q04DX003 (ip), vehicle: carboxymethylcellulose (CMC)) is 159 % of control.
On to `[I][Hg][CH2]C1COC([CH2][Hg][I])CO1` (configuration not stated), for which the T/C is 117 % of control under setting [1], 109 % of control under setting [2] and 96 % of control under setting [3].
Consider `Cc1cn(C2CC3[O][Sn]([c]4ccccc4)([c]4ccccc4)[O]CC3O2)c(=O)[nH]c1=O` (configuration not stated), for which the T/C by setting is: (dose: 25.0 mg/kg/injection, schedule: Q04DX002 (ip), vehicle: saline) 96 % of control; (dose: 50.0 mg/kg/injection, schedule: Q04DX002 (ip), vehicle: saline) 103 % of control; (dose: 100.0 mg/kg/injection, schedule: Q04DX002 (ip), vehicle: saline) 112 % of control.
Consider `COCC1OC(OC2C3=C(C(C)C)CCC3(C)/C=C3\C(CCC3(O)COC)C(C)C2O)C(O)C2OC3OC12OC3(C)C1CO1` (configuration not stated), for which the T/C is, setting by setting: (dose: 0.78 mg/kg/injection, schedule: Q04DX002 (ip), vehicle: Klucel (hydroxypropylcellulose) (HPC)) 105 % of control and 94 % of control; (dose: 1.56 mg/kg/injection, schedule: Q04DX002 (ip), vehicle: Klucel (hydroxypropylcellulose) (HPC)) 104 % of control and 106 % of control; (dose: 3.12 mg/kg/injection, schedule: Q04DX002 (ip), vehicle: Klucel (hydroxypropylcellulose) (HPC)) 109 % of control and 95 % of control; (dose: 6.25 mg/kg/injection, schedule: Q04DX002 (ip), vehicle: Klucel (hydroxypropylcellulose) (HPC)) 116 % of control and 89 % of control and 100 % of control; (dose: 12.5 mg/kg/injection, schedule: Q04DX002 (ip), vehicle: Klucel (hydroxypropylcellulose) (HPC)) 103 % of control and 104 % of control and 98 % of control.
In the case of `CN(Cc1cnc2nc(N)nc(N)c2n1)c1c(Cl)cc(C(=O)NC(CCC(=O)O)C(=O)O)cc1Cl` (configuration not stated), the T/C was 105 % of control (dose: 12.5 mg/kg/injection, schedule: Q04DX003 (ip), vehicle: Klucel (hydroxypropylcellulose) (HPC)); 102 % of control (dose: 25.0 mg/kg/injection, schedule: Q04DX003 (ip), vehicle: Klucel (hydroxypropylcellulose) (HPC)); 104 % of control (dose: 50.0 mg/kg/injection, schedule: Q04DX003 (ip), vehicle: Klucel (hydroxypropylcellulose) (HPC)); 104 % of control (dose: 100.0 mg/kg/injection, schedule: Q04DX003 (ip), vehicle: Klucel (hydroxypropylcellulose) (HPC)); 118 % of control (dose: 200.0 mg/kg/injection, schedule: Q04DX003 (ip), vehicle: Klucel (hydroxypropylcellulose) (HPC)).
For `CCCCNC(C)[C@]1(O)Cc2c(O)c3c(c(O)c2[C@@H](OC2CC(N)C(O)C(C)O2)C1)C(=O)c1c(OC)cccc1C3=O` (some centres not stated), the T/C (dose: 23.0 mg/kg/injection, schedule: Q07DX002 (iv), vehicle: saline) is 110 % of control; the T/C (dose: 35.0 mg/kg/injection, schedule: Q07DX002 (iv), vehicle: saline) was 122 % of control; the T/C (dose: 54.0 mg/kg/injection, schedule: Q07DX002 (iv), vehicle: saline) was 110 % of control; the T/C (dose: 84.0 mg/kg/injection, schedule: Q07DX002 (iv), vehicle: saline) is 113 % of control.
In the case of `COc1ccc(CC2C(=O)NC(C)C(=O)N(C)C3C(=O)N(C)C(Cc4ccc(O)c(c4)Oc4ccc(cc4)C3O)C(=O)NC(C)C(=O)NC(C)C(=O)N2C)cc1` (configuration not stated) (tested in a mixture with another compound), the T/C is 98 % of control (dose: 0.5 mg/kg/injection, schedule: Q04DX003 (ip), vehicle: saline); 98 % of control (dose: 1.0 mg/kg/injection, schedule: Q04DX003 (ip), vehicle: saline); 99 % of control (dose: 2.0 mg/kg/injection, schedule: Q04DX003 (ip), vehicle: saline).
